Data reported in article PMC5855550, “Pharmacokinetic Study of Bioactive Flavonoids in the Traditional Japanese Medicine Keigairengyoto Exerting Antibacterial Effects against Staphylococcus aureus” (International Journal of Molecular Sciences, 2018).

Key:
in vivo = experiment: in vivo
Protocol: To specifically deconjugate glucuronides, 80 μL of plasma sample was incubated with 50 μL of β-glucuronidase solution containing 200 units/mL β-glucuronidase from Escherichia coli (Sigma-Aldrich) for 2 h at 37 °C. The deconjugation reaction was stopped by adding ethyl acetate or by refrigerating the mixture considering the following procedures. This pretreated solution was injected into the two liquid chromatography–mass spectrometry with tandem mass spectrometry (LC-MS/MS) systems after pooling with an internal standard solution of niflumic acid (Sigma-Aldrich) or atropine (Wako Pure Chemical Industries, Osaka, Japan).
For quantification of apigenin, wogonin, wogonoside, hesperetin, naringenin, liquiritigenin, genistein, and luteolin in β-glucuronidase-naive (untreated) plasma, 200 µL plasma samples were pretreated by liquid-liquid extraction using ethyl acetate. The total supernatant was collected, dried, and concentrated using a centrifugal evaporator. The dried residue was then dissolved in 60 μL of the specific HPLC mobile phase used for each analytical method, and a 10 or 20 μL volume injected into the LC-MS/MS system.
For quantification of baicalin, baicalein, and berberine in untreated plasma, 80 µL of plasma was pretreated by solid-phase extraction using Oasis HLB 96-well µElution plate (Waters, Milford, MA, USA). The methanol eluates were collected, dried, and dissolved in 60 μL of the specific HPLC mobile phase. A 10 or 20 μL volume was then injected into the LC-MS/MS system.
For quantification of glycyrrhizic acid and glycyrrhetinic acid in untreated plasma, 100 µL plasma samples were pretreated by deproteinization using methanol. The supernatant was collected, dried, and concentrated using a centrifugal evaporator. The dried residue was then dissolved in 60 μL of the specific HPLC mobile phase used for the analytical method, and a 10 μL volume injected into the LC-MS/MS system.
For quantification of wogonin, wogonoside, hesperetin, naringenin, liquiritigenin, and genistein in treated plasma, the reaction solutions after deconjugation reactions were pretreated by liquid-liquid extraction. The supernatant was dissolved in 120 μL of the specific HPLC mobile phase, and a 10 or 15 μL volume injected into the LC-MS/MS system.
For quantification of apigenin, luteolin, baicalin, baicalein, and berberine in treated plasma, the reaction solutions after deconjugation were pretreated by solid-phase extraction by the method described above, and 10 or 15 μL of the solution dissolved in 50 μL of the specific HPLC mobile phase was injected into the LC-MS/MS system.
Pharmacokinetic parameters of flavonoids and glucuronide metabolites in KRT-administrated plasma with or without β-glucuronidase treatment were analyzed by noncompartmental modeling using Phoenix WinNonlin (version 6.3, Certara L.P., St. Louis, MO, USA) to determine various pharmacokinetic constants, including Cmax, tmax, t1/2, and AUC0–last. The t1/2 was […] loge2/ke, where ke is the terminal elimination rate constant determined from at least three data points on the descending linear limb.

RAW264.7 cells = experiment: Macrophage culture assay: phagocytosis of FITC-conjugated S. aureus; format: cell-based, mouse; conditions: for Phagocytosis relative change versus control / Phagocytosis MFI: IFN-γ 0.5 ng/mL; for Phagocytosis MFI: mean ± SEM of triplicates
Protocol: Cells of the mouse macrophage cell line RAW264.7 (ATCC, Manassas, VA, USA) were grown in Dulbecco’s modified Eagles medium supplemented with 10% fetal bovine serum (FBS), 4.5 g/L glucose, 2 mmol/L L-glutamine, 100 U/mL penicillin, 100 µg/mL streptomycin, and 10 mmol/L HEPES. […] After 3 days’ incubation at 37 °C, culture fluids were removed and replaced by warm medium containing 30 μg/mL FITC-conjugated S. aureus. After 30 min incubation in a 5% CO2 incubator, cells were harvested using cold PBS containing 2 mmol/L EDTA, washed, and fixed for 15 min at 4 °C with phosphate buffer containing 4% paraformaldehyde (pH 7.4). FITC-positive cells were determined using a FACSaria II flow cytometer and DIVA 8.0.1 software (Becton Dickinson, San Jose, CA, USA). Phagocytic activity is expressed as the mean fluorescence intensity (MFI) from individual cells.

β-glucuronidase = molecular target: T1, β-glucuronidase (Mus musculus, UniProt P12265); experiment: Conversion assay of baicalin to baicalein by macrophages, macrophage lysate and skin homogenate; format: in vitro ADME; conditions: baicalin 10 μmol/L; 24 h incubation; living macrophages (RAW264.7), also lysates of macrophages and skin
T1 construct: endogenous in cells; host or cells: RAW264.7 cells (live or lysate); alternatively back-skin homogenate supernatant of naive mice (tissue)
T1 sequence (P12265 23-648): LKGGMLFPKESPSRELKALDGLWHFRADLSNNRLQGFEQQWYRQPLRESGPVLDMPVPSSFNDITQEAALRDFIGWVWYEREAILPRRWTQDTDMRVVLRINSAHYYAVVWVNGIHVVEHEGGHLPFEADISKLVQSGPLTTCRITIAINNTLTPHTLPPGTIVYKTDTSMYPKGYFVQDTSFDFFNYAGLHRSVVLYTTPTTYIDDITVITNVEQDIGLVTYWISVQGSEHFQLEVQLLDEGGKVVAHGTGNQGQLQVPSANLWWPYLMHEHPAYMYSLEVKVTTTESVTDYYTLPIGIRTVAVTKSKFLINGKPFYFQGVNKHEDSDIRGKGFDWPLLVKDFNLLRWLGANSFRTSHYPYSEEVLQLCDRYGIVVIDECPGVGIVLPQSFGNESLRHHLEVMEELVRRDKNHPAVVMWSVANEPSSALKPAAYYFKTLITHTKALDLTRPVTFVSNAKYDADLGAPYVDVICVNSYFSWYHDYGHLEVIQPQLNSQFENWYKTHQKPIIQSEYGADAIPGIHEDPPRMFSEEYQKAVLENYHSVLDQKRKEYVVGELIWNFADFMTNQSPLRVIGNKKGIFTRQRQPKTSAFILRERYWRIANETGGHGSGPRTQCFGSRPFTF
Protocol: Naïve mice were sacrificed by exsanguination to obtain skin samples from the back. After shaving with an electric razor, the skin was excised and homogenized in cold PBS at 20 mg/mL. After centrifugation at 10,000× g for 20 min at 4 °C, supernatants were harvested and stored at −80 °C until use.
To examine β-glucuronidase activity in skin tissue, baicalin (final 10 μmol/L) was added as a substrate to skin homogenate in 24-well plates. Alternatively, to examine β-glucuronidase activity in macrophages, baicalin (final 10 μmol/L) was added to live RAW264.7 cells seeded at 1 × 10^5 cells/0.5 mL/well or to cell lysates in 24-well plates. After 24 h incubation in a 5% CO2 incubator, supernatants were harvested and stored at −80 °C until measurement of baicalin and baicalein by LC-MS/MS as described above.

macrophage = system: macrophage; parameters: method as in doi:10.24294/ti.v1.i1.31; conditions: previous data; cited from earlier work
[1] = Sprague-Dawley, rat, in vivo, po
[2] = Sprague-Dawley, rat, in vivo, po, 2 g/kg
[3] = Exp. 1, 10 μmol/L, 3 days, control 155 ± 4
[4] = Sprague-Dawley, rat, plasma, po, 2 g/kg
[5] = Exp. 2, 1 μmol/L, control 226 ± 12
[6] = Exp. 2, 3 μmol/L, control 226 ± 12
[7] = Exp. 2, 10 μmol/L, control 226 ± 12

Structure (SMILES): O=c1cc(-c2ccc(O)cc2)oc2cc(O)cc(O)c12 [Apigenin, apigenin]
- Tmax (in vivo; [1]): 10.0 h
- AUC(0-t) (in vivo; [2]): 0.843 ng·h/mL
- Cmax (in vivo; [2]): 0.14 ng/mL
- Tmax (in vivo; [2]): 4 h
- phagocytosis by macrophages (result in words) (RAW264.7 cells; 10 μmol/L): enhanced
- Phagocytosis relative change versus control (RAW264.7 cells; Exp. 1, 10 μmol/L): 3.3
- Phagocytosis MFI (RAW264.7 cells; [3]): 507 ± 11

Structure (SMILES): O=C1C[C@@H](c2ccc(O)cc2)Oc2cc(O)ccc21 [Liquiritigenin, liquiritigenin]
- AUC(0-t) (in vivo; [4]): 8.68 ng·h/mL
- Cmax (in vivo; [4]): 2.11 ng/mL
- Tmax (in vivo; [4]): 4 h
- phagocytosis by macrophages (result in words) (RAW264.7 cells; 10 μmol/L): enhanced
- Phagocytosis relative change versus control (RAW264.7 cells; Exp. 1, 10 μmol/L): 1.6
- Phagocytosis MFI (RAW264.7 cells; [3]): 245 ± 4

Structure (SMILES): O=C1C[C@@H](c2ccc(O)cc2)Oc2cc(O)cc(O)c21 [Naringenin, naringenin]
- AUC(0-t) (in vivo; [2]): 9.53 ng·h/mL
- Cmax (in vivo; [2]): 1.34 ng/mL
- Tmax (in vivo; [2]): 4 h
- half-life (in vivo; [2]): 3.01 h
- phagocytosis by macrophages (result in words) (RAW264.7 cells; 10 μmol/L): enhanced
- Phagocytosis relative change versus control (RAW264.7 cells; Exp. 1, 10 μmol/L): 1.5
- Phagocytosis MFI (RAW264.7 cells; [3]): 236 ± 10

Structure (SMILES): COc1c(O)cc(O)c2c(=O)cc(-c3ccccc3)oc12 [Wogonin, wogonin]
- AUC(0-t) (in vivo; [2]): 71.5 ng·h/mL
- Cmax (in vivo; [2]): 16.3 ng/mL
- Tmax (in vivo; [2]): 4 h
- phagocytosis by macrophages (result in words) (RAW264.7 cells; 10 μmol/L): enhanced
- Phagocytosis relative change versus control (RAW264.7 cells; Exp. 1, 10 μmol/L): 1.7
- Phagocytosis MFI (RAW264.7 cells; [3]): 271 ± 16

Structure (SMILES): COc1ccc([C@@H]2CC(=O)c3c(O)cc(O)cc3O2)cc1O [Hesperetin, hesperetin]
- AUC(0-t) (in vivo; [4]): 2.83 ng·h/mL
- Cmax (in vivo; [4]): 0.644 ng/mL
- Tmax (in vivo; [4]): 4 h
- phagocytosis by macrophages (result in words) (RAW264.7 cells; 10 μmol/L): did not
- Phagocytosis relative change versus control (RAW264.7 cells; Exp. 1, 10 μmol/L): 1.2
- Phagocytosis MFI (RAW264.7 cells; [3]): 193 ± 12

Structure (SMILES): O=c1c(-c2ccc(O)cc2)coc2cc(O)cc(O)c12 [Genistein, genistein]
- AUC(0-t) (in vivo; [2]): 9.65 ng·h/mL
- Cmax (in vivo; [2]): 0.998 ng/mL
- Tmax (in vivo; [2]): 24 h
- plasma concentration (in vivo; β-glucuronidase-treated plasma until 6 h after KRT administration, detected at 10 and 24 h): below the detection limit
- phagocytosis by macrophages (result in words) (RAW264.7 cells; 10 μmol/L): enhanced
- Phagocytosis relative change versus control (RAW264.7 cells; Exp. 1, 10 μmol/L): 3.4
- Phagocytosis MFI (RAW264.7 cells; [3]): 525 ± 22

Structure (SMILES): O=C(O)[C@H]1O[C@@H](Oc2cc3oc(-c4ccccc4)cc(=O)c3c(O)c2O)[C@H](O)[C@@H](O)[C@@H]1O [baicalin, baicalein 7-O-glucuronide]
- deconjugation of baicalin to aglycone baicalein (β-glucuronidase): almost completely deconjugated to baicalein
- AUC(0-t) (in vivo; [2]): 10100 ng·h/mL
- Cmax (in vivo; [2]): 1020 ng/mL
- Tmax (in vivo; [2]): 4 h
- half-life (in vivo; [2]): 3.53 h
- phagocytosis by macrophages (result in words) (RAW264.7 cells; 10 μmol/L): promoted
- Phagocytosis relative change versus control (RAW264.7 cells; Exp. 2, 1 μmol/L): 1.1
- Phagocytosis MFI (RAW264.7 cells; [5]): 238 ± 9
- Phagocytosis relative change versus control (RAW264.7 cells; Exp. 2, 3 μmol/L): 1.2
- Phagocytosis MFI (RAW264.7 cells; [6]): 269 ± 10
- Phagocytosis relative change versus control (RAW264.7 cells; Exp. 2, 10 μmol/L): 2.4
- Phagocytosis MFI (RAW264.7 cells; [7]): 531 ± 19

Structure (SMILES): COc1c(O[C@@H]2O[C@H](C(=O)O)[C@@H](O)[C@H](O)[C@H]2O)cc(O)c2c(=O)cc(-c3ccccc3)oc12 [wogonoside, wogonin 7-O-glucuronide]
- AUC(0-t) (in vivo; [4]): 3400 ng·h/mL
- Tmax (in vivo; [4]): 6 h

Structure (SMILES): CC1(C)[C@@H](O)CC[C@]2(C)[C@H]3C(=O)C=C4[C@@H]5C[C@@](C)(C(=O)O)CC[C@]5(C)CC[C@@]4(C)[C@]3(C)CC[C@@H]12 [glycyrrhetinic acid]
- macrophage phagocytosis-enhancing activity (macrophage): no macrophage phagocytosis-enhancing activity
- Cmax (in vivo; [2]): 121 ng/mL
- Tmax (in vivo; [2]): 6 h

Structure (SMILES): O=c1cc(-c2ccccc2)oc2cc(O)c(O)c(O)c12 [Baicalein, baicalein]
- Cmax (in vivo; Sprague-Dawley, rat, plasma, oral, 2 g/kg): 1320 ng/mL
- Cmax (in vivo; rat plasma, no β-glucuronidase treatment, KRT 2 g/kg oral, BQL for baicalein = 125 ng/mL): BQL ^#
- Cmax (in vivo; rat plasma, no β-glucuronidase treatment, KRT 2 g/kg oral, BQL for baicalein = 125 ng/mL, listed as baicalein): BQL
- phagocytosis by macrophages (result in words) (RAW264.7 cells; 10 μmol/L): enhanced
- Phagocytosis relative change versus control (RAW264.7 cells; Exp. 1, 10 μmol/L): 3.4
- Phagocytosis MFI (RAW264.7 cells; [3]): 530 ± 6
- Phagocytosis relative change versus control (RAW264.7 cells; Exp. 2, 1 μmol/L): 1.0
- Phagocytosis MFI (RAW264.7 cells; [5]): 223 ± 10
- Phagocytosis relative change versus control (RAW264.7 cells; Exp. 2, 3 μmol/L): 2.0
- Phagocytosis MFI (RAW264.7 cells; [6]): 445 ± 7
- Phagocytosis relative change versus control (RAW264.7 cells; Exp. 2, 10 μmol/L): 3.8
- Phagocytosis MFI (RAW264.7 cells; [7]): 866 ± 25

Structure (SMILES): CC1(C)[C@@H](O[C@H]2O[C@H](C(=O)O)[C@@H](O)[C@H](O)[C@H]2O[C@@H]2O[C@H](C(=O)O)[C@@H](O)[C@H](O)[C@H]2O)CC[C@]2(C)[C@H]3C(=O)C=C4[C@@H]5C[C@@](C)(C(=O)O)CC[C@]5(C)CC[C@@]4(C)[C@]3(C)CC[C@@H]12 [Glycyrrhizic acid, glycyrrhizic acid]
- Cmax (in vivo; [4]): 2.88 ng/mL
- Tmax (in vivo; [4]): 1 h

Structure (SMILES): O=c1cc(-c2ccc(O)c(O)c2)oc2cc(O)cc(O)c12 [Luteolin, luteolin]
- Tmax (in vivo; [1]): 1.00 h
- t1/2 (in vivo; [1]): 11.7 h
- AUC(0-t) (in vivo; [2]): 21.3 ng·h/mL
- Cmax (in vivo; [2]): 4.7 ng/mL
- Tmax (in vivo; [2]): 6 h
- phagocytosis by macrophages (result in words) (RAW264.7 cells; 10 μmol/L): enhanced
- Phagocytosis relative change versus control (RAW264.7 cells; Exp. 1, 10 μmol/L): 2.6
- Phagocytosis MFI (RAW264.7 cells; [3]): 408 ± 22
